Reference: patent US20250113823A1, “Arthropod Control Compositions” (priority 2022, published 2025)
Read-outs that look alike come from different tables or passages of the source.

Test system: Aedes aegypti
Experiment: Warm Body assay, mosquito landings on treated warm body
Type: in vivo
Settings: for pest or weed control at 1 % / pest or weed control at 0.04 %: read-out: repellence; for pest or weed control at 0.0016 %: read-out: reduce the number of mosquito landings
Method: The arthropod controlling effect according to the present invention is determined on mosquitoes using an adapted Warm Body assay as defined in Kröber T, Kessler S, Frei J, Bourquin M, Guerin PM. An in vitro assay for testing mosquito controlling compounds employing a warm body and carbon dioxide as a behavioral activator. J Am Mosq Control Assoc. 2010; 26: 381-386. Further information is provided in the accompanying examples
The controlling effect, repellence & spatial repellence, according to the present invention is determined by testing the Warm Body assay against the yellow fever mosquito, Aedes aegypti Rockefeller strain. […] Observations of controlling efficacy were made on host-seeking females of uniform age, 5 to 10 days old selected as mentioned in the publication mentioned hereinabove. Tested hungry females had access to 10% sugar solution but were not blood-fed. Further information is provided in the accompanying examples.
The published protocol has been adapted in not manually counting the landing mosquitoes but automatically using an automatic counting software, the switch from Anopheles gambiae to A. aegypti led to a decrease of mosquitoes' number placed in the tested cage due to the size difference (i.e. 30 mosquitoes instead of 50) and to an increase of lighting as A. aegypti is a diurnal mosquitoes (i.e. 150 lux instead of 4 lux). Further information is provided in the accompanying examples. […]
The controlling effect according to the present invention was assessed using an adapted Warm Body assay as defined in Kröber T, Kessler S, Frei J, Bourquin M, Guerin P M. 2010. J Am Mosq Control Assoc. 26: 381-386. In this in-vitro assay the number of mosquito landing on a warm body, simulating an attractive host treated with the tested stimuli, was measured in order to assess the repellence effect.
The published protocol has been adapted as the switch from Anopheles gambiae to Aedes aegypti led to a decrease of mosquitoes placed in the tested cage due to the size difference (i.e. 30 mosquitoes instead of 50) and to an increase of lighting since A. aegypti is a diurnal mosquitoes (i.e. 150 lux instead of 4 lux).
On the sandblasted glass Petri dish covering the warm body (28.3 cm^2), 100 μL of the compounds diluted at different concentrations in ethanol was applied. The number of mosquito landing on the warm body was counted for each stimulus and pure ethanol (solvent) as control.

[1] = Aedes aegypti, 0.016 mg/mL (Table 3), read-out: Percentage of repellence of mosquitoes Aedes aegypti landing on the warm body
[2] = Aedes aegypti, 0.4 mg/mL (Table 3), read-out: Percentage of repellence of mosquitoes Aedes aegypti landing on the warm body
[3] = Aedes aegypti, 10 mg/mL (Table 3), read-out: Percentage of repellence of mosquitoes Aedes aegypti landing on the warm body
[4] = Aedes aegypti, highest tested concentration, 1% (Table 3)
[5] = Aedes aegypti, lowest concentration of 0.0016% (Table 3)
[6] = Aedes aegypti, intermediate concentration of 0.04% (Table 3)
[7] = highest tested concentration, 1% (Table 3)
[8] = Aedes aegypti, read-out: Percentage of repellence of mosquitoes Aedes aegypti landing on the warm body

COc1ccc2ccc(=O)oc2c1O [compound 1551, 8-hydroxy-7-methoxychromen-2-one]
pest or weed control at 16 µg/mL [1]: 55%
pest or weed control at 400 µg/mL [2]: 42%
pest or weed control at 10000 µg/mL [3]: 91%
pest or weed control at 1 % [4]: > 90%
pest or weed control at 0.0016 % [5]: > 50%

COc1cc(C=CC(=O)O)cc(OC)c1O [compound 1553, 3-(4-hydroxy-3,5-dimethoxyphenyl)prop-2-enoic acid]
pest or weed control at 16 µg/mL [1]: 60%
pest or weed control at 400 µg/mL [2]: 85%
pest or weed control at 10000 µg/mL [3]: 43%
pest or weed control at 0.04 % [6]: > 75%
pest or weed control at 0.0016 % [5]: > 50%

COc1ccc(CCC(=O)O)cc1OC [compound 1561, 3-(3,4-dimethoxyphenyl)propanoic acid]
pest or weed control at 16 µg/mL [1]: 9%
pest or weed control at 400 µg/mL [2]: 37%
pest or weed control at 10000 µg/mL [3]: 84%

COc1cc(C=CC(=O)O)cc(OC)c1OC [compound 1566, 3-(3,4,5-trimethoxyphenyl)prop-2-enoic acid]
pest or weed control at 3.2 µg/mL (Aedes aegypti, 0.0032 mg/mL (Table 2), read-out: Percentage of repellence of mosquitoes Aedes aegypti landing on the warm body): 0%
pest or weed control at 16 µg/mL (Aedes aegypti, 0.016 mg/mL (Table 2), read-out: Percentage of repellence of mosquitoes Aedes aegypti landing on the warm body): 20%
pest or weed control at 35.7 µg/mL (Aedes aegypti, 0.0357 mg/mL (Table 2), read-out: Percentage of repellence of mosquitoes Aedes aegypti landing on the warm body): 22%
pest or weed control at 80 µg/mL (Aedes aegypti, 0.08 mg/mL (Table 2), read-out: Percentage of repellence of mosquitoes Aedes aegypti landing on the warm body): 0%
pest or weed control at 178 µg/mL (Aedes aegypti, 0.178 mg/mL (Table 2), read-out: Percentage of repellence of mosquitoes Aedes aegypti landing on the warm body): 30%
pest or weed control at 400 µg/mL (Aedes aegypti, 0.4 mg/mL (Table 2), read-out: Percentage of repellence of mosquitoes Aedes aegypti landing on the warm body): 81%
pest or weed control at 890 µg/mL (Aedes aegypti, 0.89 mg/mL (Table 2), read-out: Percentage of repellence of mosquitoes Aedes aegypti landing on the warm body): 69%
pest or weed control at 2000 µg/mL (Aedes aegypti, 2 mg/mL (Table 2), read-out: Percentage of repellence of mosquitoes Aedes aegypti landing on the warm body): 57%
pest or weed control at 10000 µg/mL (Aedes aegypti, 10 mg/mL (Table 2), read-out: Percentage of repellence of mosquitoes Aedes aegypti landing on the warm body): 96%

COc1cc(CC(=O)O)ccc1O [compound 1567, 2-(4-hydroxy-3-methoxyphenyl)acetic acid]
pest or weed control at 16 µg/mL [1]: 54%
pest or weed control at 400 µg/mL [2]: 86%
pest or weed control at 10000 µg/mL [3]: 98%
pest or weed control at 1 % [4]: > 90%
pest or weed control at 0.04 % [6]: > 75%
pest or weed control at 0.0016 % (Aedes aegypti): > 50%

C=CCc1cc(OC)c(OC)c(OC)c1 [compound 1682, 1,2,3-trimethoxy-5-prop-2-enylbenzene]
pest or weed control at 16 µg/mL [1]: 0%
pest or weed control at 400 µg/mL [2]: 73%
pest or weed control at 10000 µg/mL [3]: 90%
pest or weed control at 1 % [4]: > 90%

COC(=O)C(C)Cc1ccc(OC)c(OC)c1 (stereo not drawn) [compound 1698, methyl 3-(3,4-dimethoxyphenyl)-2-methylpropanoate]
pest or weed control at 16 µg/mL [1]: 45%
pest or weed control at 400 µg/mL [2]: 88%
pest or weed control at 10000 µg/mL [3]: 100%
pest or weed control at 1 % [4]: > 90%
pest or weed control at 0.04 % [6]: > 75%
mosquito landing within the two minutes of experiments [7]: protect the attractive stimulus for any mosquito landing

COc1cccc(OC)c1OC [compound 1822, 1,2,3-trimethoxybenzene]
pest or weed control at 16 µg/mL [1]: 54%
pest or weed control at 400 µg/mL [2]: 39%
pest or weed control at 10000 µg/mL [3]: 100%
pest or weed control at 1 % [4]: > 90%
pest or weed control at 0.0016 % [5]: > 50%
mosquito landing within the two minutes of experiments [7]: protect the attractive stimulus for any mosquito landing

COc1cc(CO)cc(OC)c1OC [compound 1968, (3,4,5-trimethoxyphenyl)methanol]
pest or weed control at 16 µg/mL [1]: 23%
pest or weed control at 400 µg/mL [2]: 38%
pest or weed control at 10000 µg/mL [3]: 100%
pest or weed control at 1 % [4]: > 90%
mosquito landing within the two minutes of experiments [7]: protect the attractive stimulus for any mosquito landing

COc1cc(C=NCCN=Cc2cc(OC)c(OC)c(OC)c2)cc(OC)c1OC [compound 1980, 1-(3,4,5-trimethoxyphenyl)-N-[2-[(3,4,5-trimethoxyphenyl)methylideneamino]ethyl]methanimine]
pest or weed control at 3.2 µg/mL (Aedes aegypti, 0.0032 mg/mL (Table 1), read-out: Percentage of repellence of mosquitoes Aedes aegypti landing on the warm body): 53%
pest or weed control at 7.1 µg/mL (Aedes aegypti, 0.0071 mg/mL (Table 1), read-out: Percentage of repellence of mosquitoes Aedes aegypti landing on the warm body): 57%
pest or weed control at 16 µg/mL (Aedes aegypti, 0.016 mg/mL (Table 1), read-out: Percentage of repellence of mosquitoes Aedes aegypti landing on the warm body): 34%
pest or weed control at 35.7 µg/mL (Aedes aegypti, 0.0357 mg/mL (Table 1), read-out: Percentage of repellence of mosquitoes Aedes aegypti landing on the warm body): 32%
pest or weed control at 53 µg/mL (Aedes aegypti, 0.053 mg/mL (Table 1), read-out: Percentage of repellence of mosquitoes Aedes aegypti landing on the warm body): 77%
pest or weed control at 80 µg/mL (Aedes aegypti, 0.08 mg/mL (Table 1), read-out: Percentage of repellence of mosquitoes Aedes aegypti landing on the warm body): 92%
pest or weed control at 119 µg/mL (Aedes aegypti, 0.119 mg/mL (Table 1), read-out: Percentage of repellence of mosquitoes Aedes aegypti landing on the warm body): 75%
pest or weed control at 178 µg/mL (Aedes aegypti, 0.178 mg/mL (Table 1), read-out: Percentage of repellence of mosquitoes Aedes aegypti landing on the warm body): 67%
pest or weed control at 267 µg/mL (Aedes aegypti, 0.267 mg/mL (Table 1), read-out: Percentage of repellence of mosquitoes Aedes aegypti landing on the warm body): 84%
pest or weed control at 400 µg/mL (Aedes aegypti, 0.4 mg/mL (Table 1), read-out: Percentage of repellence of mosquitoes Aedes aegypti landing on the warm body): 81%
pest or weed control at 598 µg/mL (Aedes aegypti, 0.598 mg/mL (Table 1), read-out: Percentage of repellence of mosquitoes Aedes aegypti landing on the warm body): 88%
pest or weed control at 890 µg/mL (Aedes aegypti, 0.89 mg/mL (Table 1), read-out: Percentage of repellence of mosquitoes Aedes aegypti landing on the warm body): 63%
pest or weed control at 2000 µg/mL (Aedes aegypti, 2 mg/mL (Table 1), read-out: Percentage of repellence of mosquitoes Aedes aegypti landing on the warm body): 86%
pest or weed control at 4470 µg/mL (Aedes aegypti, 4.47 mg/mL (Table 1), read-out: Percentage of repellence of mosquitoes Aedes aegypti landing on the warm body): 71%
pest or weed control at 10000 µg/mL (Aedes aegypti, 10 mg/mL (Table 1), read-out: Percentage of repellence of mosquitoes Aedes aegypti landing on the warm body): 96%

CCc1cc(OC)c(O)c(OC)c1 [compound 2240, 4-ethyl-2,6-dimethoxyphenol]
pest or weed control at 16 µg/mL [1]: 0%
pest or weed control at 400 µg/mL [2]: 47%
pest or weed control at 10000 µg/mL [3]: 94%
pest or weed control at 1 % [4]: > 90%

COc1cccc(OC)c1O [compound 2244, 2,6-dimethoxyphenol]
pest or weed control at 16 µg/mL [1]: 44%
pest or weed control at 400 µg/mL [2]: 59%
pest or weed control at 10000 µg/mL [3]: 85%

COc1cc(C=CCOC(C)=O)cc(OC)c1OC [compound 2247, 3-(3,4,5-trimethoxyphenyl)-2-acetate]
Percentage of repellence of mosquitoes Aedes aegypti landing on the warm body (0.016 mg/mL (Table 3)): 39%
Percentage of repellence of mosquitoes Aedes aegypti landing on the warm body (0.4 mg/mL (Table 3)): 44%
Percentage of repellence of mosquitoes Aedes aegypti landing on the warm body (10 mg/mL (Table 3)): 98%

COc1cc(C)cc(OC)c1OC [compound 2250, 1,2,3-trimethoxy-5-methybenzene]
Percentage of repellence of mosquitoes Aedes aegypti landing on the warm body (0.016 mg/mL (Table 3)): 21%
Percentage of repellence of mosquitoes Aedes aegypti landing on the warm body (0.4 mg/mL (Table 3)): 57%
Percentage of repellence of mosquitoes Aedes aegypti landing on the warm body (10 mg/mL (Table 3)): 100%
mosquito landing within the two minutes of experiments [7]: protect the attractive stimulus for any mosquito landing

COc1cccc(CO)c1OC [compound 2263, (2,3-dimethoxyphenyl)methanol]
pest or weed control at 16 µg/mL [1]: 52%
pest or weed control at 400 µg/mL [2]: 96%
pest or weed control at 10000 µg/mL [3]: 97%
pest or weed control at 1 % [4]: > 90%
pest or weed control at 0.04 % [6]: > 75%
pest or weed control at 0.0016 % [5]: > 50%

COc1ccc(C#N)c(OC)c1OC [compound 2266, 2,3,4-trimethoxybenzonitrile]
pest or weed control at 16 µg/mL [1]: 48%
pest or weed control at 400 µg/mL [2]: 83%
pest or weed control at 10000 µg/mL [3]: 89%
pest or weed control at 0.04 % [6]: > 75%

COc1cc(C=O)cc(OC)c1OC [compound 2268, 3,4,5-trimethoxybenzaldehyde]
pest or weed control at 16 µg/mL [8]: 59%
pest or weed control at 400 µg/mL [8]: 88%
pest or weed control at 10000 µg/mL [8]: 95%
pest or weed control at 0.0016 % (Aedes aegypti): > 50%
pest or weed control at 0.04 % (Aedes aegypti): > 75%
pest or weed control at 1 % (Aedes aegypti): > 90%

COc1ccc(C(C)=O)c(OC)c1OC [compound 2269, 1-(2,3,4-trimethoxyphenyl)ethanone]
pest or weed control at 16 µg/mL [1]: 18%
pest or weed control at 400 µg/mL [2]: 70%
pest or weed control at 10000 µg/mL [3]: 100%
pest or weed control at 1 % [4]: > 90%
mosquito landing within the two minutes of experiments [7]: protect the attractive stimulus for any mosquito landing
